Measured values: article PMC4449006, “Targeting KRAS Oncogene in Colon Cancer Cells with 7-Carboxylate Indolo[3,2-b]quinoline Tri-Alkylamine Derivatives” (PLoS ONE, 2015)

Assays:
CCD18co cells = test: MTS short-term cytotoxicity assay (72 h), CCD18co; format: cell-based; conditions: Homo sapiens, CCD-18Co, MTS, standard errors ≤ 0.1, read-out: CCD18co IC50
Procedure: The short-term effect of compounds at 72 h on cell growth was studied using colorectal carcinoma cell lines with different KRAS and TP53 genotypes: human colorectal carcinoma HCT116 (mut Kras, wild-type (wt) p53), and human metastatic colorectal adenocarcinoma SW620 (mut Kras, mut p53). In parallel, we also used the immortalized human embryonic kidney cell line HEK293T (wt Kras, wt p53) and normal human colon fibroblast cells CCD18co (wt Kras, wt p53).
SW620 human colorectal adenocarcinoma cells (European Collection of Cell Cultures, ECACC, Porton Down, Wiltshire, UK), HEK293T human embryonic kidney cells (ATCC, LGC Standards, UK) HCT116 human colon carcinoma cells (ECACC), HCT116 p53(+/+) and p53(−/−) isogenic human colon cancer cells (GRCF Cell Center and Biorepository, the Johns Hopkins University, School of Medicine, Baltimore, MD, USA), were grown in Dulbecco’s modified Eagle’s medium (DMEM) supplemented with 10% fetal bovine serum, and 1% antibiotic/antimycotic (Invitrogen, Grand Island, NY, USA), CCD18co human colon fibroblasts (ATCC, CRL-1459) were grown in Minimum Essential Medium (MEM) supplemented with 10% fetal bovine serum, 1% antibiotic/antimycotic, 2 mM GlutaMAX, 0,1 mM Non-essential amino acids (NEAA) (Invitrogen) and […] Recombinant Human TNF-α (Peprotech, USA) and maintained at 37°C in a humidified atmosphere of 5% CO2.
Cell viability was evaluated by the tetrazolium dye (MTS) Short-Term Cytotoxicity Assay. […] Following 72 h of compound exposure, cell viability was evaluated using the CellTiter 96 AQueous Non-Radioactive Cell Proliferation Assay (Promega, Madison, WI, USA), using 3-(4,5-dimethylthiazol-2-yl)-5-(3-carboxymethoxyphenyl)-2-(4-sulfophenyl)-2H-tetrazolium, inner salt (MTS) as previously described [35]. Cell viability data were expressed as mean ±SD from at least three independent experiments. IC50 and IC65 values were determined using GaphPad Prism v.5.00 (GraphPad Software). In selected experiments, cell viability was also assessed by trypan blue exclusion assay, and general cell death by LDH activity from cell culture supernatants.

HCT116 cells [1] = test system: HCT116 cells; design: method as in PMID 23960016; conditions: HCT116 vs primary rat hepatocytes; cited from earlier work
HCT116 cells [2] = test: Hoechst staining and Guava Nexin assay, HCT116; format: cell-based, human; conditions: HCT116, 72 h, IC50 concentrations
Procedure: To further validate the effect of the IQ3A compounds on the induction of apoptosis in HCT116 cells, apoptosis was ascertained by evaluating changes in nuclear morphology by Hoechst staining, and also by the Nexin assay, following 72 h of incubation with IQ3A compounds at the IC50 concentrations. […] The p53 protein plays a central and pivotal role in human cancers, having a potent tumor suppressive activity via pleiotropic mechanisms. Therefore, the steady-state levels of p53 protein were evaluated by immunoblotting, following 72 h of incubation with IQ3A compounds at the IC50 concentrations, to ascertain their involvement on the mechanism of apoptosis elicited by IQ3A. […] In SW620 cells, no significant increase in p53 steady-state expression was detected, possibly due to the mutant status of p53 (Fig 5A, middle panel). […]
Fig 4 Exposure to IQ3A compounds increases apoptosis in HCT116 cells. […] Results are expressed as the mean percentage (%) of early (LR quadrant) and late (UR quadrant) apoptotic cells.
The Nexin Assay distinguishes viable, early and late apoptotic cells based on the externalization of phosphatidylserine to the cell surface, where Annexin V can readily bind them. […]

CCN(CC)CCOC(=O)c1ccc2c(c1)c1nc3ccccc3c(OCCN(CC)CC)c1n2CCN(CC)CC [1a]
IC50 (CCD18co cells): 4.63 µM | Selective growth inhibition of KRAS mutant HCT116 cells compared to primary rat hepatocytes (HCT116 cells [1]): 100 fold | induction of apoptosis (HCT116 cells [2]): marked increase in apoptosis compared to vehicle
